For the assay, the target named is Factor D (Homo sapiens (Human), UniProt P00746). The experiment in a line: biochemical. It is filed as biochemical.

pIC50: −log10 of the molar value. Where two headings read alike, the source gives them in different places.

As a reminder, the pIC50 is the IC50 on a negative log10 scale, so that one unit is a factor of ten.

Factor D, sequence (P00746 26-253): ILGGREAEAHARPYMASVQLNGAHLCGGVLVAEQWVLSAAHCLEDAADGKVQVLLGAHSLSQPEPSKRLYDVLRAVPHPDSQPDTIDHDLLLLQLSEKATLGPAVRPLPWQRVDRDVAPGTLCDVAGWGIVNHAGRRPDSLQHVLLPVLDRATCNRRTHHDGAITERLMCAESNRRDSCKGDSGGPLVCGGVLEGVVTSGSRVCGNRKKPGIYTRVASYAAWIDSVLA

`COc1cnc2c(c1)c(C(C)=O)cn2CC(=O)N1[C@@H]2C[C@@H]2C[C@H]1C(=O)NCc1cccc(Cl)c1F` [Example 494, (1R,3S,5R)-2-[2-(3-Acetyl-5-methoxy-pyrrolo[2,3-b]pyridin-1-yl)-acetyl]-2-aza-bicyclo [3.1.0]hexane-3-carboxylic acid 3-chloro-2-fluoro-benzylamide]: under “read-out: IC50”, the pIC50 is 7.30.
The same measure, in the same setting: under `O=C(NCc1cccc(Cl)c1F)[C@@H]1C[C@H]2C[C@H]2N1C(=O)Cn1cc(C(=O)C(F)(F)F)c2ccccc21` [Example 495, (1R,3S,5R)-2-{2-[3-(2,2,2-Trifluoro-acetyl)-indol-1-yl]-acetyl}-2-aza-bicyclo[3.1.0] hexane-3-carboxylic acid 3-chloro-2-fluoro-benzylamide] stands 7.72; under `C[C@@]1(F)C[C@@H](C(=O)NCc2cccc(Cl)c2F)N(C(=O)Cn2cc(C(N)=O)c3ccccc32)C1` [Example 496, 1-{2-[(2S,4R)-2-(3-Chloro-2-fluoro-benzylcarbamoyl)-4-fluoro-4-methyl-pyrrolidin-1-yl]-2-oxo-ethyl}-1H-indole-3-carboxylic acid amide], 6.75.
Still for that read-out and setting: for `COc1ccc2c(c1)c(C(N)=O)cn2CC(=O)N1C[C@H](F)C[C@H]1C(=O)NCc1cccc(Cl)c1F` [Example 497, 1-{2-[(2S,4R)-2-(3-Chloro-2-fluoro-benzylcarbamoyl)-4-fluoro-pyrrolidin-1-yl]-2-oxo-ethyl}-5-methoxy-1H-indole-3-carboxylic acid amide] the value was 6.89; for `CC(=O)c1cn(CC(=O)N2C[C@H](F)C[C@H]2C(=O)NCc2cc(C#N)cc(Cl)c2F)c2ccccc12` [Example 498, (2S,4R)-1-[2-(3-Acetyl-indol-1-yl)-acetyl]-4-fluoro-pyrrolidine-2-carboxylic acid 3-chloro-5-cyano-2-fluoro-benzylamide], 6.16.
The same measure, in the same setting: for `COc1ccc2c(C(N)=O)cn(CC(=O)N3C[C@H](F)C[C@H]3C(=O)NCc3cccc(Cl)c3F)c2c1` [Example 499, 1-{2-[(2S,4R)-2-(3-Chloro-2-fluoro-benzylcarbamoyl)-4-fluoro-pyrrolidin-1-yl]-2-oxo-ethyl}-6-methoxy-1H-indole-3-carboxylic acid amide] the value was 7.44.
On to `COc1ccc2c(C(C)=O)cn(CC(=O)N3C[C@H](F)C[C@H]3C(=O)NCc3cccc(Cl)c3F)c2c1` [Example 500, (2S,4R)-1-[2-(3-Acetyl-6-methoxy-indol-1-yl)-acetyl]-4-fluoro-pyrrolidine-2-carboxylic acid 3-chloro-2-fluoro-benzylamide], for which the pIC50 (read-out: IC50) is 7.44.
Still for that read-out and setting: for `COc1ccc2c(c1)c(C(C)=O)cn2CC(=O)N1CCCC[C@H]1C(=O)NCc1cccc(Cl)c1F` [Example 501, (S)-1-[2-(3-Acetyl-5-methoxy-indol-1-yl)-acetyl]-piperidine-2-carboxylic acid 3-chloro-2-fluoro-benzylamide] the value was 6.33.
For the compound `CC(=O)c1cn(CC(=O)N2C[C@](C)(F)C[C@H]2C(=O)NCc2cccc(Cl)c2F)c2ccncc12` [Example 502, (2S,4R)-1-[2-(3-Acetyl-pyrrolo[3,2-c]pyridin-1-yl)-acetyl]-4-fluoro-4-methyl-pyrrolidine-2-carboxylic acid 3-chloro-2-fluoro-benzylamide], where the note is “read-out: IC50”, the pIC50 was 6.35.
Take `CC(=O)c1cn(CC(=O)N2[C@@H]3C[C@@H]3C[C@H]2C(=O)N[C@H](CCO)c2cccc(Cl)c2F)c2ccccc12` [Example 504, (1R,3S,5R)-2-[2-(3-Acetyl-indol-1-yl)-acetyl]-2-aza bicyclo[3.1.0]hexane-3-carboxylic acid [(R)-1-(3-chloro-2-fluoro-phenyl)-3-hydroxy-propyl]-amide]: for the setting “read-out: IC50”, the pIC50 was 7.24.
`CO[C@H]1[C@@H](C(=O)NCc2cccc(Cl)c2F)N(C(=O)Cn2cc(C(C)=O)c3ccccc32)C[C@@H]1F` [Example 505, (2S,3S,4S)-1-[2-(3-Acetyl-indol-1-yl)-acetyl]-4-fluoro-3-methoxy-pyrrolidine-2-carboxylic acid 3-chloro-2-fluoro-benzylamide] gave a pIC50 of 7.85.
With `CC(=O)c1cn(CC(=O)N2C[C@H]3C[C@H]3[C@H]2C(=O)NCc2cccc(Cl)c2F)c2cnccc12` [Example 506, (1R,2S,5S)-3-[2-(3-Acetyl-pyrrolo[2,3-c]pyridin-1-yl)-acetyl]-3-aza-bicyclo[3.1.0] hexane-2-carboxylic acid 3-chloro-2-fluoro-benzylamide], the pIC50 (read-out: IC50) is 6.48.
Same read-out and setting: under `CC(=O)c1cn(CC(=O)N2C[C@H](F)C[C@H]2C(=O)NCc2cccc(Cl)c2F)c2ccccc12` [Example 507, (2S,4R)-1-[2-(3-Acetyl-indol-1-yl)-acetyl]-4-fluoro-pyrrolidine-2-carboxylic acid 3-chloro-2-fluoro-benzylamide] stands 7.80; under `CC(=O)c1cn(CC(=O)N2C[C@H](F)C[C@H]2C(=O)NCc2cccc(Cl)c2F)c2ccc(OCc3ccccc3)cc12` [Example 508, (2S,4R)-1-[2-(3-Acetyl-5-benzyloxy-indol-1-yl)-acetyl]-4-fluoro-pyrrolidine-2-carboxylic acid 3-chloro-2-fluoro-benzylamide], 7.92; under `CC(=O)c1cn(CC(=O)N2C[C@H](F)C[C@H]2C(=O)NCc2cccc(Cl)c2F)c2cc(OC(F)(F)F)ccc12` [Example 509, (2S,4R)-1-[2-(3-Acetyl-6-trifluoromethoxy-indol-1-yl)-acetyl]-4-fluoro-pyrrolidine-2-carboxylic acid 3-chloro-2-fluoro-benzylamide], 7.24.
Same read-out and setting: for `CC(=O)c1cn(CC(=O)N2[C@@H]3C[C@@H]3C[C@H]2C(=O)NCc2cccc(Cl)c2F)c2ccccc12` [Example 510, (1R,3S,5R)-2-[2-(3-Acetyl-indol-1-yl)-acetyl]-2-aza-bicyclo[3.1.0]hexane-3-carboxylic acid 3-chloro-2-fluoro-benzylamide] the value was 7.80; for `CC(=O)c1cn(CC(=O)N2C[C@](C)(F)C[C@H]2C(=O)NCc2cccc(Cl)c2F)c2ccccc12` [Example 511, (2S,4R)-1-[2-(3-Acetyl-indol-1-yl)-acetyl]-4-fluoro-4-methyl-pyrrolidine-2-carboxylic acid 3-chloro-2-fluoro-benzylamide], 7.15; for `CC(=O)c1cn(CC(=O)N2[C@@H]3CC[C@@H](C3)[C@H]2C(=O)NCc2cccc(Cl)c2F)c2ccccc12` [Example 512, (1R,3S,4S)-2-[2-(3-Acetyl-indol-1-yl)-acetyl]-2-aza-bicyclo[2.2.1]heptane-3-carboxylic acid 3-chloro-2-fluoro-benzylamide], 6.39.
Take `CC(=O)c1cn(CC(=O)N2CCS[C@H]2C(=O)NCc2cccc(Cl)c2F)c2ncccc12` [Example 513, (S)-3-[2-(3-Acetyl-pyrrolo[2,3-b]pyridin-1-yl)-acetyl]-thiazolidine-2-carboxylic acid 3-chloro-2-fluoro-benzylamide]: the pIC50 (read-out: IC50) is 6.71.
On the same count and under the same terms, for `CC(=O)c1cn(CC(=O)N2C[C@H](F)C[C@H]2C(=O)Nc2cccc(OC(F)(F)F)c2F)c2ccccc12` [Example 514, (2S,4R)-1-[2-(3-Actyl-indol-1-yl)-acetyl]-4-fluoro-pyrrolidine-2-carboxylic acid (2-fluoro-3-trifluoromethoxy-phenyl)-amide] the value was 7.02.
Consider `CC(=O)c1cn(CC(=O)N2[C@@H]3C[C@@H]3C[C@H]2C(=O)Nc2cc(Br)cc(-c3nnn[nH]3)c2)c2ccccc12` [Example 515, (1R,3S,5R)-2-[2-(3-Acetyl-indol-1-yl)-acetyl]-2-aza-bicyclo[3.1.0]hexane-3-carboxylic acid [3-bromo-5-(2H-tetrazol-5-yl)-phenyl]-amide], for which the pIC50 (read-out: IC50) is 6.57.
Still for that read-out and setting: for `CC(=O)c1cn(CC(=O)N2C[C@H](F)C[C@H]2C(=O)NCc2cccc(Br)c2F)c2ccccc12` [Example 516, (2S,4R)-1-[2-(3-Acetyl-indol-1-yl)-acetyl]-4-fluoro-pyrrolidine-2-carboxylic acid 3-bromo-2-fluoro-benzyl amide] the value was 8.10; for `NC(=O)c1cn(CC(=O)N2C[C@H](F)C[C@H]2C(=O)Nc2cccc(C(F)(F)F)c2F)c2ccccc12` [Example 517, 1-{2-[(2S,4R)-4-Fluoro-2-(2-fluoro-3-trifluoromethyl-phenylcarbamoyl)-pyrrolidin-1-yl]-2-oxo-ethyl}-1H-indole-3-carboxylic acid amide], 5.84.
Regarding `CC(=O)c1cn(CC(=O)N2C[C@H](F)C[C@H]2C(=O)N[C@H](CO)c2cccc(Cl)c2F)c2ccccc12` [Example 518, (2S,4R)-1-[2-(3-Acetyl-indol-1-yl)-acetyl]-4-fluoro-pyrrolidine-2-carboxylic acid [(S)-1-(3-chloro-2-fluoro-phenyl)-2-hydroxy-ethyl]-amide], the negative-log IC50 (pIC50) (read-out: IC50) is 7.39.
Same read-out and setting: under `CNC(=O)c1cn(CC(=O)N2C[C@H](F)C[C@H]2C(=O)NCc2cccc(Cl)c2F)c2ccccc12` [Example 519, 1-{2-[(2S,4R)-2-(3-Chloro-2-fluoro-benzylcarbamoyl)-4-fluoro-pyrrolidin-1-yl]-2-oxo-ethyl}-1H-indole-3-carboxylic acid methylamide] stands 6.14; under `CO[C@H]1[C@@H](C(=O)NCc2cccc(Cl)c2F)N(C(=O)Cn2cc(C(C)=O)c3cccnc32)C[C@@H]1F` [Example 520, (2S,3S,4S)-1-[2-(3-Acetyl-pyrrolo[2,3-b]pyridin-1-yl)-acetyl]-4-fluoro-3-methoxy-pyrrolidine-2-carboxylic acid 3-chloro-2-fluoro-benzylamide], 7.66.
Same read-out and setting: for `CC(=O)c1cn(CC(=O)N2C[C@H](F)C[C@H]2C(=O)NCc2cc(-c3nnn[nH]3)cc(Cl)c2F)c2ccccc12` [Example 521, (2S,4R)-1-[2-(3-Acetyl-indol-1-yl)-acetyl]-4-fluoro-pyrrolidine-2-carboxylic acid 3-chloro-2-fluoro-5-(1H-tetrazol-5-yl)-benzylamide] the value was 7.43; for `CC(=O)c1cn(CC(=O)N2[C@@H]3C[C@@H]3C[C@H]2C(=O)N[C@H](CN(C)C)c2cccc(Cl)c2F)c2ccccc12` [Example 522, (1R,3S,5R)-2-[2-(3-Acetyl-indol-1-yl)-acetyl]-2-aza-bicyclo[3.1.0]hexane-3-carboxylic acid [(S)-1-(3-chloro-2-fluoro-phenyl)-2-dimethylamino-ethyl]-amide], 6.38.

The record behind these values is US9085555B2, “Complement pathway modulators and uses thereof” (priority 2011, dated 2015).
